What all share (format): functional
Common to all, as to conditions: read-out: ED50 (the source's name)

Assay [1] is described as follows: Cytotoxicity against human BC1 cells.
Another assay has as its system Lu1. As to the kind of experiment: Cytotoxicity against human Lu1 cells.
Another assay deals with Col2. As to the kind of experiment: Cytotoxicity against human Col2 cells.
The next assay deals with KB. Kind of assay: Cytotoxicity against human KB cells.
A short description of assay [2]: Cytotoxicity against human KBVIN cells in absence of vinblastine.
A further assay concerns LNCaP. Kind of assay: Cytotoxicity against human LNCAP cells.
The nature of assay [3]: Cytotoxicity against human KBVIN cells in presence of vinblastine.

Converted amounts (≈) assume the structure as drawn.

This note sets out measurements from ChEMBL document CHEMBL1146400, “10-Epi-olguine from Rabdosia ternifolia” (1997).

As to `CC(=O)O[C@@H](C)[C@@H](/C=C/[C@@H]1O[C@@H]1[C@@H]1OC(=O)C=C[C@@H]1OC(C)=O)OC(C)=O`, the EC50 was 1.8 µg/mL (≈ 4.71 µM) in assay [1]; 4.8 µg/mL (≈ 12.6 µM) with Lu1; 2.1 µg/mL (≈ 5.49 µM) in the assay with Col2; 1.8 µg/mL (≈ 4.71 µM) in the assay with KB; 2.1 µg/mL (≈ 5.49 µM) in assay [2]; 1.2 µg/mL (≈ 3.14 µM) in the assay with LNCaP. Moreover, the EC50 in assay [3] was found to be 2.2 µg/mL.
